Data: US10550080B2 (BRISTOL-MYERS SQUIBB COMPANY, priority 2016, dated 2020)
pIC50: −log10 of the molar value.

Columns and labels:
NaV1.5 = NaV1.5 (Homo sapiens (Human), UniProt Q14524); test: Automated electrophysiology, IonWorks Barracuda population patch clamp, NaV1.5 current (inactivated-state protocol); assay type: cell-based; details: HEK 293 cells expressing NaV1.5; read-out: NaV1.5 Barra IC50
Method: (§1) Automated Electrophysiology: Ion Works Barracuda population patch clamp (PPC). PPC measurements were performed using an IonWorks Barracuda instrument (Molecular Devices Corporation, Union City, Calif.) using either PatchPlate™ PPC substrates (Molecular Devices Corporation) with 64 apertures per well. The ability to average currents from 64 recordings from each well greatly improves data consistency and recording success rates in the measurement of NaV1.7 mediated ionic currents. Calculated leak current was digitally subtracted from the total cell NaV1.7 current for each sample point acquired.
(§2) NaV1.7 currents were elicited by a voltage clamp protocol designed to bias the NaV1.7 channels to their inactivated state as follows. From holding potential of −60 mV cells were briefly hyperpolarized to −100 mV for 1.25 sec, then stepped to −20 mV for 20 sec to inactivate the channels. This was followed by a relatively brief hyperpolarization to −100 mv for 300 ms, then a 20 msec test pulse to −20 mV to elicit the NaV1.7 current used to measure the pharmacology of all test compounds. Compounds were incubated for 600 sec between the pre- and post-compound reads. The external recording solution used was (in mM) 137 NaCl, 4 KCl, 1 MgCl2, 1.8 CaCl2, 10 Hepes, 10 glucose, pH to 7.4 with NaOH, and the internal solution used was (in mM) 100 K-gluconate, 40 KCl, 3.2 zMgCl2, 5 EGTA, 10 HEPES pH to 7.2 with KOH. The same solutions were used to record NaV1.5 currents, with the following voltage clamp protocol. NaV1.5 currents were elicited by a voltage clamp protocol designed to bias the NaV1.5 channels to their inactivated state as follows. From holding potential of −40 mV cells were briefly hyperpolarized to −100 mV for 300 ms, then stepped to −10 mV for 20 sec to inactivate the channels. This was followed by a relatively brief hyperpolarization to −100 mv for 30 ms, then a 20 msec test pulse to −10 mV to elicit the NaV1.5 current used to measure the pharmacology of all test compounds.
(§3) HEK 293 cells expressing NaV1.7 and NaV1.5 channels, were used (Essen Biosciences, Ann Arbor, Mich.). Cells were cultured in T-175 flasks and passaged every 2 to 3 days at 1:3 to 1:6 seeding density dilutions. Cells were grown to 70% to 90% confluence in a flask and removed from the incubator (37° C., 5% CO2) 1 to 3 days after plating. Growth medium was aspirated from the culture flasks. Cells were gently rinsed with 10 ml of PBS (Catalog number: 14190144, Gibco) to remove residual media. Next a total of 2 mL TrypLE (Gibco) solution was added, and the flasks containing cells were sat for 3 min at RT, after which, the cells became visibly rounded and were easily dislodged from the bottom of the flask with a few brief taps on a solid surface. A total of 8 mL of media was added to the flask to inactivate the TrypLE, and the mixture was centrifuged at 910 rpm for 4 min. The cell supernatant was decanted, and the cell pellets were resuspended in 5-6 mL of external solution followed by gentle triturations using a 10 ml pipette, and transferred to a 15 ml conical tube and immediately brought to the IW Barracuda instrument.
(§4) Peak membrane currents were analyzed with IW Barracuda software and exported to Excel for further analysis. Concentration response curve fitting was performed with BMS in-house software. IC50 values were obtained by fits of the Hill equation to the average percent inhibition data plotted versus compound concentration. […] Results are reported in Table 1 (NaV1.7 Barra IC50 in nM and NaV1.5 Barra IC50 in nM).

NaV1.7 = NaV1.7 (Homo sapiens (Human), UniProt Q15858); test: Automated electrophysiology, IonWorks Barracuda population patch clamp, NaV1.7 current (inactivated-state protocol); assay type: cell-based; details: HEK 293 cells expressing NaV1.7; 600 sec compound incubation; read-out: NaV1.7 Barra IC50
Chain of NaV1.7 (Q15858 whole entry): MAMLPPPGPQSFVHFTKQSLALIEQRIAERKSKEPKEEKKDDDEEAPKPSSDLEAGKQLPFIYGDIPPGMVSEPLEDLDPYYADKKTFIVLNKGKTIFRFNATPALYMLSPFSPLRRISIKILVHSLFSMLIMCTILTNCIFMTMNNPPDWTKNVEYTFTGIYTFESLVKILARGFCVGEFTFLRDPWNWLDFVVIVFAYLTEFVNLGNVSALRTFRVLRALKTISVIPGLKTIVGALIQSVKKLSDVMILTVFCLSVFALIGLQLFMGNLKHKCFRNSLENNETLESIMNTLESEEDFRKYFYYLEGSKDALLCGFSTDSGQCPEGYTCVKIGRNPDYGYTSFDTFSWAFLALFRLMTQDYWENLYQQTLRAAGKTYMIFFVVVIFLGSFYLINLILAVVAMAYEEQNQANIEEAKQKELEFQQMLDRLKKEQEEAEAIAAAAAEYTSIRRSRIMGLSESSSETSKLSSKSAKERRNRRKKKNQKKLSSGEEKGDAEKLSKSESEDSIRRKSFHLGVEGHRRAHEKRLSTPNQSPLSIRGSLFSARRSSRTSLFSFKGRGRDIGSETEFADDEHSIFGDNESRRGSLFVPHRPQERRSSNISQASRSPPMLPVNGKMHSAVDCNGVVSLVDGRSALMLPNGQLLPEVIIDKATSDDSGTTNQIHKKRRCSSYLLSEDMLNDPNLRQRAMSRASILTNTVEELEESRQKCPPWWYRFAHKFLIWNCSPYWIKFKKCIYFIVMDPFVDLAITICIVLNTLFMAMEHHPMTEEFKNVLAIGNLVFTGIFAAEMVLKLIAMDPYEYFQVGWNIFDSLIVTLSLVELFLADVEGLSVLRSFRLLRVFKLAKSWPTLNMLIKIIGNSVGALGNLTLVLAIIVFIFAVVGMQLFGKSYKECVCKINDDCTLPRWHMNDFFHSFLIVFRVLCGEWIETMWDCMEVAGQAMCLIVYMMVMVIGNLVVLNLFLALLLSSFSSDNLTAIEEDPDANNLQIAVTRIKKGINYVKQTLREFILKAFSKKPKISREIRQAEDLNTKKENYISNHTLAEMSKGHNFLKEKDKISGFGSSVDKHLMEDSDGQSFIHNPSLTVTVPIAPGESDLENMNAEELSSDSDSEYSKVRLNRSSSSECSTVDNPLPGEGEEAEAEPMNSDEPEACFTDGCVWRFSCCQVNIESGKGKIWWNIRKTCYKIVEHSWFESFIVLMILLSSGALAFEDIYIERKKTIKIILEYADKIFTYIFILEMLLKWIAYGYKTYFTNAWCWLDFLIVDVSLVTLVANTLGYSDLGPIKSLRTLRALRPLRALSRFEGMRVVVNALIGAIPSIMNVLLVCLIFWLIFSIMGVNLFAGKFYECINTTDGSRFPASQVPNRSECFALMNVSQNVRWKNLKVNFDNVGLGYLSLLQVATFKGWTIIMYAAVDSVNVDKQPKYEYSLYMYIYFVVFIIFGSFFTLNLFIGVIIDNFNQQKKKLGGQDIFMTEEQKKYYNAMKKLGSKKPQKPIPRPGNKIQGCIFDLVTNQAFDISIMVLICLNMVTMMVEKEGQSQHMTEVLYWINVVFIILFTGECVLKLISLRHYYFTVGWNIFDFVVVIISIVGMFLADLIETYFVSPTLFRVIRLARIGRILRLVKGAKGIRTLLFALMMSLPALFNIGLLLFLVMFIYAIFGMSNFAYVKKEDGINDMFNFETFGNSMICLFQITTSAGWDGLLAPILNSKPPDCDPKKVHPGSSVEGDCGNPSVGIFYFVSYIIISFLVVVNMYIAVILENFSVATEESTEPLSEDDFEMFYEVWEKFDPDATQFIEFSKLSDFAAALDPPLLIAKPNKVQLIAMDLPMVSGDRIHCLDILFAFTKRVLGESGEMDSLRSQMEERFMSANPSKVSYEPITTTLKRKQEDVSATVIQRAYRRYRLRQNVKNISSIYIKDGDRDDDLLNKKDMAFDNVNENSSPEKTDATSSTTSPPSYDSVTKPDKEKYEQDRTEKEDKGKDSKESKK
Method: as §1, §2, §3, §4

hNaV1.7 = hNaV1.7 (Homo sapiens (Human), UniProt Q15858); test: Ligand Binding Assay (LBA), radioligand displacement on hNaV1.7 HEK293 cell membranes; details: 0.5 nM [3H] radioligand, 24 hours at room temperature; read-out: NaV1.7 LBA IC50
Chain of hNaV1.7 (Q15858 whole entry): as above
Method: Ligand Binding Assay (LBA): hNaV1.7 binding affinities were determined with a filtration binding assay using purified membranes from HEK293 cells stably expressing hNaV1.7. HEK293 cells from a 10-stack cell culture flask (approximately 10^10 cells) were dissociated, frozen, and stored at −80° C. To prepare membranes, the frozen cell pellet was thawed and suspended in 6 ml hypotonic lysis buffer (50 mM HEPES, 0.1% mammalian protease inhibitor cocktail). 1 ml of resuspended cells was added to an additional 6 ml of lysis buffer and homogenized with 30 strokes of a tight pestle in a glass homogenizer. Homogenate was centrifuged at 1000×g for 10 minutes at 4° C. and the resulting supernatant was further centrifuged at 38,500×g for 60 minutes at 4° C. The resulting pellet was resuspended in binding buffer (50 mM HEPES, 130 mM NaCl, 5.4 mM KCl, 0.8 mM MgCl2, 5 mM glucose, pH 7.4) and needle homogenized with a 25 gauge needle. Protein concentration was determined with a BCA protein assay. Purified membranes were aliquoted, flash frozen in an ethyl alcohol dry ice bath, and stored at −80° C. To measure displacement of a radiolabeled ligand, 50 μg of purified hNaV1.7 HEK cell membranes were incubated with test compounds (eight concentrations, in duplicate) and 0.5 nM [3H] labeled radioligand in a 96 well plate for 24 hours at room temperature on a shaker. The total binding reaction volume was 250 μl, consisting of 200 μl purified hNaV1.7 HEK cell membranes, 25 μl test compound, and 25 μl radioligand. Non-specific binding was defined by 20 μM of a reference hNaV1.7 inhibitor. Binding reactions were terminated by filtration through GF/B filters presoaked in 0.5% polyethyleneamine. Filters were washed 5 times with 2 ml each of 4′C wash buffer (50 mM Tris-HCl, pH 7.4 at 4° C.). Bound radioactivity captured on the filters was counted on a liquid scintillation counter. Specific binding, expressed as % inhibition, was fit with Graphpad Prism software to determine binding IC50 values. Results are reported in Table 1 (NaV1.7 LBA IC50 in nM).

Chain of NaV1.5 (Q14524 whole entry): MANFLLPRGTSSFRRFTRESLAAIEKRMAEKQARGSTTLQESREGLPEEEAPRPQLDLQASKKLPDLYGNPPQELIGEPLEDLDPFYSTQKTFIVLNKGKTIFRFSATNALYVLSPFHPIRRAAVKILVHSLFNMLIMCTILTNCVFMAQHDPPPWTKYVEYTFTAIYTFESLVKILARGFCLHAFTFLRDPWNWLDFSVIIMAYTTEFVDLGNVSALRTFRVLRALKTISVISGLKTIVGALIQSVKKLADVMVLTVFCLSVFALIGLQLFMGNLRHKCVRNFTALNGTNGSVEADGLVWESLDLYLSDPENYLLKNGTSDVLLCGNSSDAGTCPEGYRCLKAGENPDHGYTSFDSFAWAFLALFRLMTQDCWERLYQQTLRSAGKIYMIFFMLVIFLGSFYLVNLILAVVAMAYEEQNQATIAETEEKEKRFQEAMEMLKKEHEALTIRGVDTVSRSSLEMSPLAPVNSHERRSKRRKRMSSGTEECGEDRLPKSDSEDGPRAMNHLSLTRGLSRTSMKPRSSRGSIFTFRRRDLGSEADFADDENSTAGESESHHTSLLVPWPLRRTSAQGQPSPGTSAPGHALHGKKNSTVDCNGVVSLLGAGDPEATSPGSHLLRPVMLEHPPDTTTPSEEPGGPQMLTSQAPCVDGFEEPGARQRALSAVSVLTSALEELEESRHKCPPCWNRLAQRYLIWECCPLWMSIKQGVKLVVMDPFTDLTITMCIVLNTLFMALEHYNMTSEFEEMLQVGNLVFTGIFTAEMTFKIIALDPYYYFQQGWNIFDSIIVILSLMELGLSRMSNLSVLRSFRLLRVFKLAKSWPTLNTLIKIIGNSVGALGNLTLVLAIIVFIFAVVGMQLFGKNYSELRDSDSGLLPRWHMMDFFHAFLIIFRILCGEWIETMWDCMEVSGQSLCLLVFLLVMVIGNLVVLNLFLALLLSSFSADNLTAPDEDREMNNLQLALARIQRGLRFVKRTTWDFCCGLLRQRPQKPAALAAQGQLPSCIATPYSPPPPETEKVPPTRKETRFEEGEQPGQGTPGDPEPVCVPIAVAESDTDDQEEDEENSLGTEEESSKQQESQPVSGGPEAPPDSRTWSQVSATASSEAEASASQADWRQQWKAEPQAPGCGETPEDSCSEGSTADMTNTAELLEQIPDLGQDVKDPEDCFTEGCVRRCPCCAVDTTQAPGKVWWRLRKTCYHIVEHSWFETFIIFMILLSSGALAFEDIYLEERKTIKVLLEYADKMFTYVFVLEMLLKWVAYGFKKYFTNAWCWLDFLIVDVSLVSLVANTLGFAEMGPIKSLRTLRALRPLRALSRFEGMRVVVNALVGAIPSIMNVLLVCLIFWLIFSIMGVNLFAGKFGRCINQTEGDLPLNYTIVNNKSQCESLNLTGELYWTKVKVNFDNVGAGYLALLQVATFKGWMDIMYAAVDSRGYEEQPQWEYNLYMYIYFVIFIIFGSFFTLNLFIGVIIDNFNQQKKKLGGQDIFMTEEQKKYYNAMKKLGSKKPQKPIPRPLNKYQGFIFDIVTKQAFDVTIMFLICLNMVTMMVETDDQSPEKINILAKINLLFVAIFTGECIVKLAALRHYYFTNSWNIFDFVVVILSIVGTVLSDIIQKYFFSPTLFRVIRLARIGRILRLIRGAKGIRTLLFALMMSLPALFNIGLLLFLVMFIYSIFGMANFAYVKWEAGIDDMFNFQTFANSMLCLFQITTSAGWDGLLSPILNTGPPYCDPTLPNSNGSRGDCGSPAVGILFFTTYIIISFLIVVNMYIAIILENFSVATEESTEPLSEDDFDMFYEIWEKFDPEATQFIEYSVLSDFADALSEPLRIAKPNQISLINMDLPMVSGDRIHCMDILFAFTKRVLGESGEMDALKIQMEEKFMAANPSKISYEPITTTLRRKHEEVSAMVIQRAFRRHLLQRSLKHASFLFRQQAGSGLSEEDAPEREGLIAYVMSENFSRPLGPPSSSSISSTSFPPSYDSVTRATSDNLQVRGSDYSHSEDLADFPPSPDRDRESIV

| Compound | pIC50 (NaV1.5) | pIC50 (NaV1.7) | pIC50 (hNaV1.7) |
| --- | --- | --- | --- |
| CCS(=O)(=O)NC(=O)c1ccc2c(-c3cnc(OCC(C)C)c(Cl)c3)cn(C)c2c1 [Example 36, 3-(5-Chloro-6-isobutoxypyridin-3-yl)-N-(ethylsulfonyl)-1-methyl-1H-indole-6-carboxamide] | 5.25 | 6.81 | 7.42 |
| CC(C)COc1ncc(-c2cn(C)c3cc(C(=O)NS(=O)(=O)C(C)C)ccc23)cc1Cl [Example 37, 3-(5-Chloro-6-isobutoxypyridin-3-yl)-N-(isopropylsulfonyl)-1-methyl-1H-indole-6-carboxamide] | 4.85 | 6.34 | 6.68 |
| CC(C)COc1ncc(-c2cn(C)c3cc(C(=O)NS(=O)(=O)C(C)(C)C)ccc23)cc1Cl [Example 38, N-(tert-butylsulfonyl)-3-(5-chloro-6-isobutoxypyridin-3-yl)-1-methyl-1H-indole-6-carboxamide] | 4.66 | 5.89 | 6.81 |
| CC(C)COc1ncc(-c2nn(C)c3cc(C(=O)NS(C)(=O)=O)ccc23)cc1Cl [Example 39, 3-(5-Chloro-6-isobutoxypyridin-3-yl)-1-methyl-N-(methylsulfonyl)-1H-indazole-6-carboxamide] | 5.19 | 7.18 | 7.17 |
| CC(C)COc1ncc(-c2c3ccc(C(=O)NS(C)(=O)=O)cc3nn2C)cc1Cl [Example 40, 3-(5-Chloro-6-isobutoxypyridin-3-yl)-2-methyl-N-(methylsulfonyl)-2H-indazole-6-carboxamide] | 4.78 | 6.10 | 5.70 |
| CC(C)COc1ncc(-c2c3ccc(C(=O)NS(=O)(=O)C4CC4)cc3nn2C)cc1Cl [Example 41, 3-(5-Chloro-6-isobutoxypyridin-3-yl)-N-(cyclopropylsulfonyl)-2-methyl-2H-indazole-6-carboxamide] | 4.95 | 6.71 | 6.17 |
| CC(C)COc1ncc(-c2cn(C)c3cc(C(=O)NS(C)(=O)=O)c(F)cc23)cc1Cl [Example 42, 3-(5-Chloro-6-isobutoxypyridin-3-yl)-5-fluoro-1-methyl-N-(methylsulfonyl)-1H-indole-6-carboxamide] | 5.14 | 6.28 | 7.96 |
| CC(C)COc1ncc(-c2cn(C)c3cc(C(=O)NS(=O)(=O)C4CC4)c(F)cc23)cc1Cl [Example 43, 3-(5-Chloro-6-isobutoxypyridin-3-yl)-N-(cyclopropylsulfonyl)-5-fluoro-1-methyl-1H-indole-6-carboxamide] | 5.31 | 6.51 | 8.47 |
| CC(C)COc1ccc(-c2cn(C)c3cc(C(=O)NS(C)(=O)=O)c(F)cc23)cn1 [Example 44, 5-Fluoro-3-(6-isobutoxypyridin-3-yl)-1-methyl-N-(methylsulfonyl)-1H-indole-6-carboxamide] | 4.73 | 6.98 | 7.07 |
| CC(C)COc1ccc(-c2cn(C)c3cc(C(=O)NS(=O)(=O)C4CC4)c(F)cc23)cn1 [Example 45, N-(Cyclopropylsulfonyl)-5-fluoro-3-(6-isobutoxypyridin-3-yl)-1-methyl-1H-indole-6-carboxamide] | 5.43 | 7.23 | 7.59 |
| Cn1cc(-c2ccc(C(F)(F)F)cc2)c2cc(F)c(C(=O)NS(C)(=O)=O)cc21 [Example 46, 5-Fluoro-1-methyl-N-(methylsulfonyl)-3-(4-(trifluoromethyl)phenyl)-1H-indole-6-carboxamide] | < 4.52 | 7.31 | 7.08 |
| Cn1cc(-c2ccc(C(F)(F)F)cc2)c2cc(F)c(C(=O)NS(=O)(=O)C3CC3)cc21 [Example 47] | 5.42 | 7.80 | 7.41 |
| Cn1cc(-c2ccc(C(F)F)cc2)c2cc(F)c(C(=O)NS(C)(=O)=O)cc21 [Example 48, 3-(4-(Difluoromethyl)phenyl)-5-fluoro-1-methyl-N-(methylsulfonyl)-1H-indole-6-carboxamide] | < 4.52 | 7.04 | 6.02 |
| Cn1cc(-c2ccc(C(F)F)cc2)c2cc(F)c(C(=O)NS(=O)(=O)C3CC3)cc21 [Example 49, N-(Cyclopropylsulfonyl)-3-(4-(difluoromethyl)phenyl)-5-fluoro-1-methyl-1H-indole-6-carboxamide] | 5.01 | 7.42 | 6.84 |
